Results as given in patent US20250332178A1, “METHODS OF TREATING MYCOBACTERIAL INFECTIONS USING TETRACYCLINE COMPOUNDS” (priority 2018, published 2025).
In brackets after ≈: the same amount, converted by molar mass. Like-named read-outs stand apart in the source and are kept apart here.

Experiments:
M. fortuitum group = test: MIC (CLSI broth dilution), RGM isolates; format: cell-based; conditions: Mycolicibacterium fortuitum
M. mucogenium group = test: MIC (CLSI broth dilution), RGM isolates; format: cell-based
[1] = system: rapid-growing mycobacteria (RGM) isolates; test: MIC (CLSI broth dilution), all RGM isolates; format: cell-based, nontuberculous mycobacteria
M. immunogenum group = test: MIC (CLSI broth dilution), RGM isolates; format: cell-based; conditions: 336 h, extended reading, up to/including 14 days, read-out: MIC, CLA Extended

For CC[C@H]1OC(=O)[C@H](C)[C@@H](O[C@H]2C[C@@](C)(OC)[C@@H](O)[C@H](C)O2)[C@H](C)[C@@H](O[C@@H]2O[C@H](C)C[C@H](N(C)C)[C@H]2O)[C@](C)(OC)C[C@@H](C)C(=O)[C@H](C)[C@@H](O)[C@]1(C)O [clarithromycin], the MIC (M. fortuitum group; 168 h, isolate 23, M. fortuitum, extended reading (7 d), read-out: MIC, CLA Extended) was > 32 µg/mL, the MIC (M. fortuitum group; 168 h, isolate 25, M. fortuitum, extended reading (7 d), read-out: MIC, CLA Extended) was > 32 µg/mL and the MIC (M. fortuitum group; 168 h, isolate 29, M. porcinum/M. boenickei, extended reading (7 d), read-out: MIC, CLA Extended) was > 32 µg/mL. The MIC (M. fortuitum group; 240 h, isolate 24, M. fortuitum, extended reading (10 d), read-out: MIC, CLA Extended) was > 32 µg/mL, the MIC (M. fortuitum group; 240 h, isolate 27, M. porcinum, extended reading (10 d), read-out: MIC, CLA Extended) was > 32 µg/mL and the MIC (M. fortuitum group; 240 h, isolate 28, M. porcinum/M. boenickei, extended reading (10 d), read-out: MIC, CLA Extended) was > 32 µg/mL. For the same compound, the MIC (M. fortuitum group; 336 h, isolate 26, M. porcinum, extended reading, up to/including 14 days, read-out: MIC, CLA Extended) was > 32 µg/mL, the MIC (M. fortuitum group; 336 h, isolate 30, M. porcinum/M. boenickei, extended reading, up to/including 14 days, read-out: MIC, CLA Extended) was > 32 µg/mL and the MIC (M. fortuitum group; 336 h, isolate 31, M. senegalense, extended reading, up to/including 14 days, read-out: MIC, CLA Extended) was 0.5 µg/mL (≈ 0.668 µM). It also gave an MIC (M. fortuitum group; 336 h, isolate 32, M. senegalense, extended reading, up to/including 14 days, read-out: MIC, CLA Extended) of 0.5 µg/mL (≈ 0.668 µM), an MIC (M. fortuitum group; 336 h, isolate 33, M. senegalense, extended reading, up to/including 14 days, read-out: MIC, CLA Extended) of 1 µg/mL (≈ 1.34 µM) and an MIC (M. fortuitum group; 336 h, isolate 34, M. senegalense, extended reading, up to/including 14 days, read-out: MIC, CLA Extended) of 1 µg/mL (≈ 1.34 µM). The MIC (M. fortuitum group; isolate 23, M. fortuitum, initial reading, generally 3-4 days, read-out: MIC, CLA Initial) was 1 µg/mL (≈ 1.34 µM), the MIC (M. fortuitum group; isolate 24, M. fortuitum, initial reading, generally 3-4 days, read-out: MIC, CLA Initial) was 0.5 µg/mL (≈ 0.668 µM) and the MIC (M. fortuitum group; isolate 25, M. fortuitum, initial reading, generally 3-4 days, read-out: MIC, CLA Initial) was 2 µg/mL (≈ 2.67 µM). The MIC (M. fortuitum group; isolate 26, M. porcinum, initial reading, generally 3-4 days, read-out: MIC, CLA Initial) was 0.5 µg/mL (≈ 0.668 µM), the MIC (M. fortuitum group; isolate 27, M. porcinum, initial reading, generally 3-4 days, read-out: MIC, CLA Initial) was 2 µg/mL (≈ 2.67 µM) and the MIC (M. fortuitum group; isolate 28, M. porcinum/M. boenickei, initial reading, generally 3-4 days, read-out: MIC, CLA Initial) was 8 µg/mL (≈ 10.7 µM). It also gave an MIC (M. fortuitum group; isolate 29, M. porcinum/M. boenickei, initial reading, generally 3-4 days, read-out: MIC, CLA Initial) of 4 µg/mL (≈ 5.35 µM), an MIC (M. fortuitum group; isolate 30, M. porcinum/M. boenickei, initial reading, generally 3-4 days, read-out: MIC, CLA Initial) of 1 µg/mL (≈ 1.34 µM) and an MIC (M. fortuitum group; isolate 31, M. senegalense, initial reading, generally 3-4 days, read-out: MIC, CLA Initial) of 0.12 µg/mL (≈ 0.16 µM). For the same compound, the MIC (M. fortuitum group; isolate 32, M. senegalense, initial reading, generally 3-4 days, read-out: MIC, CLA Initial) was 0.12 µg/mL (≈ 0.16 µM), the MIC (M. fortuitum group; isolate 33, M. senegalense, initial reading, generally 3-4 days, read-out: MIC, CLA Initial) was 0.12 µg/mL (≈ 0.16 µM) and the MIC (M. fortuitum group; isolate 34, M. senegalense, initial reading, generally 3-4 days, read-out: MIC, CLA Initial) was ≤ 0.06 µg/mL. The MIC (M. mucogenium group; 336 h, isolate 39, M. mucogenicum, extended reading, up to/including 14 days, read-out: MIC, CLA Extended) was 0.12 µg/mL (≈ 0.16 µM), the MIC (M. mucogenium group; 336 h, isolate 40, M. mucogenicum, extended reading, up to/including 14 days, read-out: MIC, CLA Extended) was 1 µg/mL (≈ 1.34 µM) and the MIC (M. mucogenium group; 336 h, isolate 41, M. mucogenicum, extended reading, up to/including 14 days, read-out: MIC, CLA Extended) was 1 µg/mL (≈ 1.34 µM). The MIC (M. mucogenium group; 336 h, isolate 42, M. mucogenicum, extended reading, up to/including 14 days, read-out: MIC, CLA Extended) was 0.12 µg/mL (≈ 0.16 µM), the MIC (M. mucogenium group; 336 h, isolate 43, M. phocaicum, extended reading, up to/including 14 days, read-out: MIC, CLA Extended) was 1 µg/mL (≈ 1.34 µM) and the MIC (M. mucogenium group; 336 h, isolate 44, M. phocaicum, extended reading, up to/including 14 days, read-out: MIC, CLA Extended) was 1 µg/mL (≈ 1.34 µM). The MIC (M. mucogenium group; 336 h, isolate 45, M. phocaicum, extended reading, up to/including 14 days, read-out: MIC, CLA Extended) was 1 µg/mL (≈ 1.34 µM), the MIC (M. mucogenium group; 336 h, isolate 46, M. phocaicum, extended reading, up to/including 14 days, read-out: MIC, CLA Extended) was 0.12 µg/mL (≈ 0.16 µM) and the MIC (M. mucogenium group; 336 h, isolate 47, M. phocaicum, extended reading, up to/including 14 days, read-out: MIC, CLA Extended) was 0.5 µg/mL (≈ 0.668 µM). For the same compound, the MIC (M. mucogenium group; 336 h, isolate 48, M. phocaicum, extended reading, up to/including 14 days, read-out: MIC, CLA Extended) was 0.5 µg/mL (≈ 0.668 µM), the MIC (M. mucogenium group; isolate 39, M. mucogenicum, initial reading, generally 3-4 days, read-out: MIC, CLA Initial) was ≤ 0.06 µg/mL and the MIC (M. mucogenium group; isolate 40, M. mucogenicum, initial reading, generally 3-4 days, read-out: MIC, CLA Initial) was 0.25 µg/mL (≈ 0.334 µM). The MIC (M. mucogenium group; isolate 41, M. mucogenicum, initial reading, generally 3-4 days, read-out: MIC, CLA Initial) was 0.5 µg/mL (≈ 0.668 µM), the MIC (M. mucogenium group; isolate 42, M. mucogenicum, initial reading, generally 3-4 days, read-out: MIC, CLA Initial) was ≤ 0.06 µg/mL and the MIC (M. mucogenium group; isolate 43, M. phocaicum, initial reading, generally 3-4 days, read-out: MIC, CLA Initial) was 0.25 µg/mL (≈ 0.334 µM). For the same compound, the MIC (M. mucogenium group; isolate 44, M. phocaicum, initial reading, generally 3-4 days, read-out: MIC, CLA Initial) was 0.25 µg/mL (≈ 0.334 µM), the MIC (M. mucogenium group; isolate 45, M. phocaicum, initial reading, generally 3-4 days, read-out: MIC, CLA Initial) was 0.25 µg/mL (≈ 0.334 µM) and the MIC (M. mucogenium group; isolate 46, M. phocaicum, initial reading, generally 3-4 days, read-out: MIC, CLA Initial) was ≤ 0.06 µg/mL. For the same compound, the MIC (M. mucogenium group; isolate 47, M. phocaicum, initial reading, generally 3-4 days, read-out: MIC, CLA Initial) was 0.25 µg/mL (≈ 0.334 µM), the MIC (M. mucogenium group; isolate 48, M. phocaicum, initial reading, generally 3-4 days, read-out: MIC, CLA Initial) was 0.12 µg/mL (≈ 0.16 µM) and the MIC50 ([1]; 336 h, all RGM isolates, extended reading, up to/including 14 days, read-out: MIC50, CLA Extended) was 2 µg/mL (≈ 2.67 µM). For the same compound, the MIC90 ([1]; 336 h, all RGM isolates, extended reading, up to/including 14 days, read-out: MIC90, CLA Extended) was > 32 µg/mL, the MIC50 ([1]; all 50 RGM isolates, initial reading, generally 3-4 days, read-out: MIC50, CLA Initial) was 0.25 µg/mL (≈ 0.334 µM) and the MIC90 ([1]; all 50 RGM isolates, initial reading, generally 3-4 days, read-out: MIC90, CLA Initial) was 2 µg/mL (≈ 2.67 µM). It also gave an MIC (M. immunogenum group; isolate 35, M. immunogenum) of 1 µg/mL (≈ 1.34 µM), an MIC (M. immunogenum group; isolate 36, M. immunogenum) of 2 µg/mL (≈ 2.67 µM) and an MIC (M. immunogenum group; isolate 37, M. immunogenum) of 2 µg/mL (≈ 2.67 µM).
